Assay results as given in ChEMBL document CHEMBL1147592, “Novel quinazoline-quinoline alkaloids with cytotoxic and DNA topoisomerase II inhibitory activities” (Bioorg Med Chem Lett, 2004).
Values after ≈ are worked out from the molar mass of the structure shown.

Legend:
[1] = tested on: P388; experiment: Cytotoxic activity against mouse leukemia P-388 cells; type: functional, cell-based
[2] = biological target: DNA topoisomerase II (Homo sapiens, UniProt P11388+Q02880); experiment: Inhibitory activity against human DNA topoisomerase II; type: protein assay

| IC50 [2] [µM] | Compound | IC50 [1] [µg/mL] |
| --- | --- | --- |
| 25 | CC(=O)NC1c2cc3ccccc3nc2-c2nc3ccccc3c(=O)n21 (stereo not drawn) | 33 (≈ 96.4 µM) |
| 25 | O=c1c2ccccc2nc2n1C(O)c1cc3ccccc3nc1-2 (stereo not drawn) | 5 (≈ 16.6 µM) |
| 25 | COC1c2cc3ccccc3nc2-c2nc3ccccc3c(=O)n21 (stereo not drawn) | 9 (≈ 28.5 µM) |
| 25 | Oc1nc(-c2cnc3ccccc3c2)nc2ccccc12 | 40 (≈ 146 µM) |
| 25 | O=C(c1cnc2ccccc2c1)c1nc(O)c2ccccc2n1 | 20 (≈ 66.4 µM) |
| 13.9 | CC(C(C)N1CC(=O)NC(=O)C1)N1CC(=O)NC(=O)C1 (stereo not drawn) [ICRF-193] | – |
| 28.5 | O=c1c2ccccc2nc2n1Cc1cc3ccccc3nc1-2 [LUOTONIN A] | 1.8 (≈ 6.31 µM) |
